In article PMC9585585, “Discovery of Small-Molecule Allosteric Inhibitors of PfATC as Antimalarials” (Journal of the American Chemical Society, 2022):
Read-outs that look alike come from different tables or passages of the source.

Key:
PfATC = PfATC (Plasmodium falciparum, UniProt A0A5K1K910); test: biochemical
Experimental: Following washing with Lysis buffer
Excess imidazole was removed and the His-tag was cleaved
400Then, the sample was loaded onto a 5 ml HiTrap SP HP column (GE Healthcare, USA) and
410PfATC activity assay. Enzymatic reactions were performed in a total volume of 150 µL in 50 mM
Small-molecule dose-response curves were
The reactions were initiated by adding CP and quenched after 10 min with
After plates were sealed with transparent sealing
(§1) 420tape to prevent evaporation and incubated overnight in the dark place at room temperature. After
Analyses were performed using
The enzymatic assay was performed as described herein above for
Briefly, the reaction was carried out at room
The reaction was initiated by
Then the plate was covered by sealing
(§2) 430tape and kept in dark place at room temperature and then heated to 95 °C for 15min in dark and kept

HsATC = molecular target: T1, HsATC (Homo sapiens, UniProt P27708); test: HsATC activity assay; assay type: biochemical; settings: in vitro activity assay, 10 mM L-aspartate, 5 mM carbamoyl phosphate; read-out: HsATC IC50
T1 construct: ATCase domain of CAD; made in house; host or cells: E. coli BL21 star
T1 sequence (P27708 1918-2225 limits assumed): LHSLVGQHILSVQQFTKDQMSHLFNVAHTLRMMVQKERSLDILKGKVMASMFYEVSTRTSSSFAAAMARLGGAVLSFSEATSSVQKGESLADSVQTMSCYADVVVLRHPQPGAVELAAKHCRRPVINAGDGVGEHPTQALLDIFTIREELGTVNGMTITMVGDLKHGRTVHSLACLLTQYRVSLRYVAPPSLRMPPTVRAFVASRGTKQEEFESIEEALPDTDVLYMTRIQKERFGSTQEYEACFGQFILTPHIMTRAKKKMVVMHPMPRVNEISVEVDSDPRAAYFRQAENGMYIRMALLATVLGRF
Experimental: 417100μL of stop mix (two volumes of Antipyrine (26.5 mM 2,3-Dimethyl-1-phenyl-3-pyrazolin-5-
418one in 50% (v/v) sulfuric acid) and one volume of 2,3-Butanedione monoxime (80 mM 2,3-
419Butanedione monoxime in 5% (v/v) acetic acid). After plates were sealed with transparent sealing
as §1
421incubation, the plates were heated at 95 °C for 15 min in dark place, and kept for 30 min before
422measuring at 466 nm suing a Synergy H1 Hybrid Reader (BioTek). Analyses were performed using
423Microsoft Excel and Graph Pad Prism.
424HsATC activity assay. The enzymatic assay was performed as described herein above for
425enzymatic assay of PfATC with minor modifications. Briefly, the reaction was carried out at room
426temperature in a total volume of 150 μl of 10 mM L-aspartate and 5 mM carbamoyl phosphate
427saturated substrate solution in 50 mM Tris-Acetate buffer pH 8.3. hsATC was pre-incubated with
428inhibitor and L-Asp for 10 min at room temperature on a shaker. The reaction was initiated by
429adding CP and stopped after 5 min with […] color mix. Then the plate was covered by sealing
as §2
431the plate in the dark for another 30 min before measuring the absorbance at 466 nm suing a Synergy
432H1 Hybrid Reader (BioTek). […]

[1] = in vitro activity assay, PfATC 50 nM, 2 mM CP, 1 mM aspartate, read-out: PfATC IC50
[2] = in vitro enzyme assay, PfATC 50 nM, n = 3, read-out: IC50 against PfATC

Chain of PfATC (A0A5K1K910 entry or part of it): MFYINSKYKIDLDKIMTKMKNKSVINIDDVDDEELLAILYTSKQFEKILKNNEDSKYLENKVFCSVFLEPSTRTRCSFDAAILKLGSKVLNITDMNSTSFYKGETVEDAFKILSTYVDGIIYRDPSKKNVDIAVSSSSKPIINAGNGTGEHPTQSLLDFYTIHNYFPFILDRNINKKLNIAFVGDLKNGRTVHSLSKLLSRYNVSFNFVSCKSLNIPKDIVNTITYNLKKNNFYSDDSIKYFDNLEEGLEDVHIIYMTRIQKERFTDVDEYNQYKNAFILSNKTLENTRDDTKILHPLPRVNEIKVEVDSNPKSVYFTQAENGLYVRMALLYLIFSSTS

Row | Compound | IC50 (PfATC; [1]) [nM] | IC50 (HsATC) [nM] | IC50 (PfATC) [nM] | IC50 (PfATC; [2]) [nM]
1 | COC(=O)c1cc(-c2ccccc2)sc1N [BDA-01] | 1270 | 1540 | – | –
2 | COC(=O)c1cc(-c2ccccc2)sc1NC(=O)OC(C)(C)C [BDA-02] | 1470 | 1500 | – | –
3 | CC(C)(C)OC(=O)Nc1sc(-c2ccccc2)cc1C(=O)O [BDA-03] | 1000 | 1630 | – | –
4 | Nc1sc(-c2ccccc2)cc1C(=O)NCCc1ccccc1 [BDA-05] | 1270 | 765 | – | –
5 | CC(C)(C)OC(=O)Nc1sc(-c2ccccc2)cc1C(=O)NCCc1ccc(S(N)(=O)=O)cc1 [BDA-06] | 1870 | 287 | – | –
6 | Nc1sc(-c2ccccc2)cc1C(=O)NCCc1ccc(S(N)(=O)=O)cc1 [BDA-07] | 996 | 116 | – | –
7 | O=C(Cc1c[nH]c2ccccc12)Nc1sc(-c2ccccc2)cc1C(=O)NCCc1ccccc1 [BDA-08] | 14700 | – | – | –
8 | CC(C)(C)OC(=O)NCC1CCN(C(=O)c2cc(-c3ccccc3)sc2NC(=O)OC(C)(C)C)CC1 [BDA-09] | 241 | 196 | – | –
9 | CC(C)(C)OC(=O)Nc1sc(-c2ccccc2)cc1C(=O)N1CCN(c2ccc(F)cc2)CC1 [BDA-10] | 5080 | 298 | – | –
10 | CC(C)CCNc1sc(-c2ccccc2)cc1C(=O)NCCc1ccccc1 [BDA-12] | 159 | 655 | – | –
11 | O=C(NCCc1ccccc1)c1cc(-c2ccccc2)sc1NCc1ncc[nH]1 [BDA-13] | 639 | 268 | – | –
12 | CC(C)(C)OC(=O)NCC(=O)Nc1sc(-c2ccccc2)cc1C(=O)NCCc1ccc(O)cc1 [BDA-17] | 1150 | 308 | – | –
13 | CC(C)(C)OC(=O)Nc1sc(-c2ccccc2)cc1C(=O)NCCC1=CCCCC1 [BDA-20] | 6310 | 2000 | – | –
14 | Cc1ccc(CCNC(=O)c2cc(-c3ccccc3)sc2NC(=O)OC(C)(C)C)cc1 [BDA-23] | 409 | 756 | – | –
15 | CC(C)(C)OC(=O)Nc1sc(-c2ccccc2)cc1C(=O)NCCc1ccc(O)c(O)c1 [BDA-25] | 181 | 403 | – | –
16 | CC(C)(C)OC(=O)Nc1sc(-c2ccccc2)cc1C(=O)NCCCc1ccccc1 [BDA-26] | 576 | 555 | – | –
17 | CC(C)(C)OC(=O)Nc1sc(-c2ccccc2)cc1C(=O)NCC(=O)c1ccccc1 [BDA-27] | 1230 | 369 | – | –

Row | Compound | IC50 (PfATC; [1]) [nM] | IC50 (HsATC) [nM] | IC50 (PfATC) [nM] | IC50 (PfATC; [2]) [nM]
18 | CC(C)(C)OC(=O)Nc1sc(-c2ccccc2)cc1C(=O)NCCc1ccc(F)cc1 [BDA-28] | 1630 | 391 | – | –
19 | COc1ccc(CCNC(=O)c2cc(-c3ccccc3)sc2NC(=O)OC(C)(C)C)cc1 [BDA-29] | 1620 | 585 | – | –
20 | CC(C)(C)OC(=O)Nc1sc(-c2ccccc2)cc1C(=O)NCc1ccc(O)cc1 [BDA-30] | 2620 | 397 | – | –
21 | CC(C)(C)OC(=O)Nc1sc(-c2ccccc2)cc1C(=O)Nc1ccccc1 [BDA-31] | 1050 | 332 | – | –
22 | CC(C)(C)OC(=O)Nc1sc(Br)cc1C(=O)NCCc1ccc(O)cc1 [BDA-32] | 2760 | 641 | – | –
23 | CC(C)(C)OC(=O)Nc1sc(-c2ccc3c(c2)OCCO3)cc1C(=O)NCCc1ccc(O)cc1 [BDA-33] | 516 | 100 | – | –
24 | CC(C)(C)OC(=O)Nc1sc(-c2ccccc2)cc1C(=O)NCc1ccccc1 [BDA-34] | 849 | 212 | – | –
25 | CC(C)(C)OC(=O)Nc1sc(-c2cnc(N)nc2)cc1C(=O)NCCc1ccc(O)cc1 [BDA-35] | 2080 | 234 | – | –
26 | CC(C)(C)OC(=O)Nc1sc2c(c1C(=O)NCCc1ccc(O)cc1)CCN(Cc1ccccc1)C2 [BDA-36] | – | 3840 | – | –
27 | CC(C)(C)OC(=O)Nc1sc(-c2ccccc2)cc1C(=O)Nc1ccc(N2CCOCC2)c(F)c1 [BDA-37] | 1080 | 349 | – | –
28 | CC(C)(C)OC(=O)Nc1sc(-c2ccccc2)cc1C(=O)NC1CCN(Cc2ccccc2)CC1 [BDA-38] | 805 | 185 | – | –
29 | CC(C)(C)OC(=O)Nc1sc(-c2ccccc2)cc1C(=O)NCC(c1ccccc1)c1ccccc1 [BDA-39] | 5640 | 15400 | – | –
30 | CC(C)(C)OC(=O)Nc1sc(-c2cncc(Cl)c2)cc1C(=O)NCCc1ccc(O)cc1 [BDA-40] | – | 11400 | – | –
31 | CC(C)(C)OC(=O)Nc1sc(-c2ccc3c(c2)OCO3)cc1C(=O)NCCc1ccc(O)cc1 [BDA-41] | 673 | 28.9 | – | –
32 | CC(C)(C)OC(=O)Nc1sc2c(c1C(=O)NCCc1ccc(O)cc1)CCC(c1ccccc1)C2 (stereo not drawn) [BDA-42] | 12200 | 2420 | – | –
33 | CC(C)(C)OC(=O)Nc1sc2c(c1C(=O)NCCc1ccc(O)cc1)CCCC2 [BDA-43] | 18400 | 2090 | – | –

Results, then the compound that gave them:

Row | IC50 (PfATC; [1]) [nM] | IC50 (HsATC) [nM] | IC50 (PfATC) [nM] | IC50 (PfATC; [2]) [nM] | Compound
34 | 6110 | 830 | – | – | CC(C)(C)OC(=O)Nc1oc(-c2ccc(Cl)cc2)cc1C(=O)NCCc1ccc(O)cc1 [BDA-44]
35 | 3770 | 124 | – | – | CC(C)(C)OC(=O)Nc1sc(-c2ccc(C=O)cc2)cc1C(=O)NCCc1ccc(O)cc1 [BDA-45]
36 | 1640 | 740 | – | – | Nc1sc(-c2ccccc2)cc1C(=O)NCCc1ccc(F)cc1 [BDA-46]
37 | 1530 | 238 | – | – | CC(C)(C)OC(=O)Nc1sc(-c2cccc(N3CCOCC3)c2)cc1C(=O)NCCc1ccc(O)cc1 [BDA-47]
38 | 1660 | 125 | – | – | CC(C)(C)OC(=O)Nc1sc(-c2cccc(C=O)c2)cc1C(=O)NCCc1ccc(O)cc1 [BDA-48]
39 | 5940 | 729 | – | – | Cc1c(-c2ccccc2)sc(NC(=O)OC(C)(C)C)c1C(=O)NCCc1ccc(O)cc1 [BDA-49]
40 | 1140 | 360 | – | – | Nc1sc(-c2ccccc2)cc1C(=O)NCCc1ccc(O)cc1 [BDA-50]
41 | 1240 | 226 | – | – | CC(C)(C)OC(=O)Nc1sc(-c2cccc(N)c2)cc1C(=O)NCCc1ccc(O)cc1 [BDA-51]
42 | 558 | 119 | – | – | Cc1ccc(-c2cc(C(=O)NCCc3ccc(O)cc3)c(NC(=O)OC(C)(C)C)s2)cc1 [BDA-52]
43 | 2720 | 383 | – | – | CC(C)(C)OC(=O)Nc1sc(-c2cccc(C#N)c2)cc1C(=O)NCCc1ccc(O)cc1 [BDA-53]
44 | 845 | 158 | – | – | CC(C)(C)OC(=O)Nc1sc(-c2ccc(F)cc2)cc1C(=O)NCCc1ccc(O)cc1 [BDA-54]
45 | 2220 | 556 | – | – | CC(C)(C)OC(=O)Nc1sc(-c2ccc(Cl)c(Cl)c2)cc1C(=O)NCCc1ccc(O)cc1 [BDA-56]
46 | 800 | 381 | – | – | CC(C)(C)OC(=O)Nc1sc(-c2ccccc2)cc1C(=O)NCCN1CCOCC1 [BDA-57]
47 | 4830 | 1230 | – | – | Nc1sc(Cc2ccccc2)cc1C(=O)NCCc1ccc(O)cc1 [BDA-58]
48 | 3110 | 2590 | – | – | CC(C)(C)OC(=O)Nc1sc(Cc2ccccc2)cc1C(=O)NCCc1ccc(O)cc1 [BDA-59]
49 | 2010 | 1050 | – | – | CC(C)(C)OC(=O)Nc1sc(-c2ccccc2)c(-c2ccccc2)c1C(=O)NCCc1ccc(O)cc1 [BDA-60]
50 | 1980 | 862 | – | – | CC(C)c1cc(C(=O)NCCc2ccc(O)cc2)c(N)s1 [BDA-61]
51 | 2200 | 1120 | – | – | CC(C)c1cc(C(=O)NCCc2ccc(O)cc2)c(NC(=O)OC(C)(C)C)s1 [BDA-62]
52 | 1090 | 250 | – | – | CC(C)(C)OC(=O)Nc1sc(-c2ccccc2)cc1C(=O)N1CCN(c2ccc(O)cc2)CC1 [BDA-63]
53 | 86900 | 704000 | – | – | COC(=O)c1c(NC(=O)OC(C)(C)C)sc2c1CCN(Cc1ccccc1)C2 [BDA-64]
54 | 6420 | 5170 | – | – | COC(=O)c1c(NC(=O)OC(C)(C)C)sc2c1CCC(c1ccccc1)C2 (stereo not drawn) [BDA-65]
55 | – | 58300 | – | – | COC(=O)c1c(N)sc2c1CCN(Cc1ccccc1)C2 [BDA-68]
56 | – | – | 1590 | – | COCCNC(=O)c1cc(-c2ccccc2)sc1N [compound 1]
57 | – | – | – | 4910 | C#CCNC(=O)c1cc(-c2ccccc2)sc1N [compound 2]
58 | – | – | – | 4610 | C=CCNC(=O)c1cc(-c2ccccc2)sc1N [compound 3]
59 | – | – | – | 3320 | CCCCNC(=O)c1cc(-c2ccccc2)sc1N [compound 4]
60 | – | – | – | 5690 | CCCNC(=O)c1cc(-c2ccccc2)sc1N [compound 5]
